Source: article PMC12073402, “A Selective MAP3K1 Inhibitor Facilitates Discovery of NPM1 as a Member of the Network” (Molecules, 2025)

Legend:
[1] = Metabolic stability in human liver microsomes (LC-MS/MS); format: in vitro ADME
Source text: An approach to address this issue of bioavailability is to improve metabolic stability. The para-position of the phenyl ring in acetanilide moieties is susceptible to oxidation. […] To test this, we altered the substitution pattern on the phenyl ring by moving the F atom from the ortho in 84 to the para position (Figure 1A). The regioisomer 51-106, resulting from the above change, was synthesized by coupling 3-(1-methyl-1H-pyrazol-4-yl)quinoxalin-6-amine (1) with freshly prepared 1-fluoro-4-isocyanato-2-(trifluoromethyl)benzene in dichloromethane (Scheme 1). To determine the metabolic stability of 51-106, we incubated 51-106 and analog 84 with human (pooled male and female) liver microsomes and monitored their stability using liquid chromatography–tandem mass spectrometry.
The in vitro metabolic stability of 51-106 was determined using human liver […] (XenoTech, LLC; Kansas City, KS, USA), following previously reported methods. […] Sample analysis was performed by liquid chromatography–tandem mass spectrometry (SCIEX QTRAP 4000 LC-MS/MS System, SCIEX, Framingham, MA, USA).

CSK = molecular target: T1, CSK (Homo sapiens, UniProt P41240); assay: KiNativ kinome profiling in PANC-1 lysate; format: binding
T1 construct: endogenous in cells; host or cells: PANC-1 cell lysate
T1 sequence (P41240 whole entry): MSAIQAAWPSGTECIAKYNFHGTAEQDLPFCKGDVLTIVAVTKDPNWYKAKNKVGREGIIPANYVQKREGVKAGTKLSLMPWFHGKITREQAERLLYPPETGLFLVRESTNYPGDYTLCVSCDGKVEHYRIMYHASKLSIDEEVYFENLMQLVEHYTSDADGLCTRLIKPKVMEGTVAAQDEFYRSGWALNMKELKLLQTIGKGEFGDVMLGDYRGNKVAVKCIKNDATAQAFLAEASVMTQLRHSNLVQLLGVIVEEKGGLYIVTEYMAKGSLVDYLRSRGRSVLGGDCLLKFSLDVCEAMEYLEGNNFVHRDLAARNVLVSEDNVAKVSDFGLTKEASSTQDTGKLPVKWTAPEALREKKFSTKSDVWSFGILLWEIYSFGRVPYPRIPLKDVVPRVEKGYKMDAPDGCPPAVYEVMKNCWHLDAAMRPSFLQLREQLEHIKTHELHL
Summary of the method: (§1)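 PANC-1 lysates were incubated with 5 μM inhibitor or DMSO, then labeled with a desthiobiotin-ATP acyl-phosphate probe that biotinylates conserved kinase lysines. Tryptic peptides were streptavidin-enriched and quantified by LC-MS/MS, reported as % change in MS signal from duplicate treated and duplicate control samples.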

PKD1, PKD2 = assay: KiNativ kinome profiling in PANC-1 lysate; format: binding; settings: 5 µM; Lys2; NIVHCDLKPENVLLASADPFPQVK
Summary of the method: as §1

MARK3 = molecular target: T2, MARK3 (Homo sapiens, UniProt P27448); assay: KiNativ kinome profiling in PANC-1 lysate; format: binding; settings: Lys1
T2 construct: endogenous in cells; host or cells: PANC-1 cell lysate
T2 sequence (P27448 whole entry): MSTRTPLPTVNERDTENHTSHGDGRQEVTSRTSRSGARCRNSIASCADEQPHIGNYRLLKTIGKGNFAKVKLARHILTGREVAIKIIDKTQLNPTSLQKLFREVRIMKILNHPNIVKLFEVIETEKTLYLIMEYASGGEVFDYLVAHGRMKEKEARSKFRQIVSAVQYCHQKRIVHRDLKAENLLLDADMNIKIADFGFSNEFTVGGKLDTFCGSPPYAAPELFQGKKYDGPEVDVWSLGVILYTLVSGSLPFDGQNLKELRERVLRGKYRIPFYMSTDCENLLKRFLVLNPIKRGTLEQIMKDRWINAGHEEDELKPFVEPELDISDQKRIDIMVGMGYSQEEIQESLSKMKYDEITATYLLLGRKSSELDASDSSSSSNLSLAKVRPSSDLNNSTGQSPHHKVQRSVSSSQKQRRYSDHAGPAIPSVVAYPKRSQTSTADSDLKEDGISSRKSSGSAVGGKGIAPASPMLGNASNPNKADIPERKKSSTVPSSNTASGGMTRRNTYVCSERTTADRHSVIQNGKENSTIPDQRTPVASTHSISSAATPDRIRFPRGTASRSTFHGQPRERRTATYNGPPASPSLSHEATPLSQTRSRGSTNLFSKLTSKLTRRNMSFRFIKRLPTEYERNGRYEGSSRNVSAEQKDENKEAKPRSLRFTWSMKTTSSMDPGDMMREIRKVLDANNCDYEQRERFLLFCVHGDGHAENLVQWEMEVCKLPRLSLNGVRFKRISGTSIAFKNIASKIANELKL
Summary of the method: as §1

MER, TYRO3 = assay: KiNativ kinome profiling in PANC-1 lysate; format: binding; settings: 5 µM; ATP Loop; KIYSGDYYR
Summary of the method: as §1

ATM = molecular target: T3, ATM (Homo sapiens, UniProt Q13315); assay: KiNativ kinome profiling in PANC-1 lysate; format: binding; settings: ATP
T3 construct: endogenous in cells; host or cells: PANC-1 cell lysate
Summary of the method: as §1

ROCK1, ROCK2 = assay: KiNativ kinome profiling in PANC-1 lysate; format: binding; settings: 5 µM
Summary of the method: as §1

IRAK1 = molecular target: T4, IRAK1 (Homo sapiens, UniProt P51617); assay: KiNativ kinome profiling in PANC-1 lysate; format: binding; settings: Lys2
T4 construct: we opted to conduct a kinome screen (KiNativ) in PANC-1 cell lysates; endogenous in cells; host or cells: PANC-1 cell lysate
T4 sequence (P51617 whole entry): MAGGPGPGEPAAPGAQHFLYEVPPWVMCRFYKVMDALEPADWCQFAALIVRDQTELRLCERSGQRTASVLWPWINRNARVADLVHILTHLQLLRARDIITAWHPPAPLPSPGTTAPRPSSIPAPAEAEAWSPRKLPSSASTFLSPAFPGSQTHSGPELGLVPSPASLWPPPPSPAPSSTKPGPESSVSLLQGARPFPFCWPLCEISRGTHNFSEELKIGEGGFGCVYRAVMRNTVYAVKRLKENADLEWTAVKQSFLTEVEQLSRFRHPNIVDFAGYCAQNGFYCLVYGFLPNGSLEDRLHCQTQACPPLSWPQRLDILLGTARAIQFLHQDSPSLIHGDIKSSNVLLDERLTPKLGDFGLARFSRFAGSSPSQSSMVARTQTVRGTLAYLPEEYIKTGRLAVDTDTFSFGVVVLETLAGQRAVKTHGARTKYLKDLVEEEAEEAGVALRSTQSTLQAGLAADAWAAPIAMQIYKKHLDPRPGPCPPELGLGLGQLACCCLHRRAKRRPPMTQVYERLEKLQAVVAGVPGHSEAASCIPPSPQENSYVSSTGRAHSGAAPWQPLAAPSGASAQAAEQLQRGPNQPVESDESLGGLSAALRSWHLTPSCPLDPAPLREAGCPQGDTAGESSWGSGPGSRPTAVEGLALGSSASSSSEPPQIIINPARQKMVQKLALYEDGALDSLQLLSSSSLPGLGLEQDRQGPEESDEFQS
Summary of the method: as §1

NDR2 = molecular target: T5, NDR2 (Homo sapiens, UniProt Q9Y2H1); assay: KiNativ kinome profiling in PANC-1 lysate; format: binding
T5 construct: endogenous in cells; host or cells: PANC-1 cell lysate
T5 sequence (Q9Y2H1 whole entry): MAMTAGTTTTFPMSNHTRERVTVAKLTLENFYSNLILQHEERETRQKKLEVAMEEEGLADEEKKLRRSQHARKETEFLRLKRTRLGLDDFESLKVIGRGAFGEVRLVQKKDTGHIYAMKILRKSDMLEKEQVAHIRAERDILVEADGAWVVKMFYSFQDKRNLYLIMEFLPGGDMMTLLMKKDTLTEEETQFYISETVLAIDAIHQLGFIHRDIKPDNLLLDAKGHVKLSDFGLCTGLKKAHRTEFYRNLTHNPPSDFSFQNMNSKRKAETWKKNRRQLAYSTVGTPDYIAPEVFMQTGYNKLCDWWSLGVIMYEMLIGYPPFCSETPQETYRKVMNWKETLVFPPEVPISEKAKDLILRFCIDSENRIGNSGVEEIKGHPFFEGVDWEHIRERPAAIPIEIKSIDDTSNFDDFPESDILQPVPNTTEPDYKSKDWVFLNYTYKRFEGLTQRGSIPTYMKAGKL
Summary of the method: as §1

JAK1 domain1 = molecular target: T6, JAK1 domain1 (Homo sapiens, UniProt P23458); assay: KiNativ kinome profiling in PANC-1 lysate; format: binding; settings: ATP Loop
T6 construct: we opted to conduct a kinome screen (KiNativ) in PANC-1 cell lysates; endogenous in cells; host or cells: PANC-1 cell lysate
Summary of the method: as §1

ACK = molecular target: T7, ACK (Homo sapiens, UniProt Q07912); assay: KiNativ kinome profiling in PANC-1 lysate; format: binding
T7 construct: endogenous in cells; host or cells: PANC-1 cell lysate
T7 sequence (Q07912 whole entry): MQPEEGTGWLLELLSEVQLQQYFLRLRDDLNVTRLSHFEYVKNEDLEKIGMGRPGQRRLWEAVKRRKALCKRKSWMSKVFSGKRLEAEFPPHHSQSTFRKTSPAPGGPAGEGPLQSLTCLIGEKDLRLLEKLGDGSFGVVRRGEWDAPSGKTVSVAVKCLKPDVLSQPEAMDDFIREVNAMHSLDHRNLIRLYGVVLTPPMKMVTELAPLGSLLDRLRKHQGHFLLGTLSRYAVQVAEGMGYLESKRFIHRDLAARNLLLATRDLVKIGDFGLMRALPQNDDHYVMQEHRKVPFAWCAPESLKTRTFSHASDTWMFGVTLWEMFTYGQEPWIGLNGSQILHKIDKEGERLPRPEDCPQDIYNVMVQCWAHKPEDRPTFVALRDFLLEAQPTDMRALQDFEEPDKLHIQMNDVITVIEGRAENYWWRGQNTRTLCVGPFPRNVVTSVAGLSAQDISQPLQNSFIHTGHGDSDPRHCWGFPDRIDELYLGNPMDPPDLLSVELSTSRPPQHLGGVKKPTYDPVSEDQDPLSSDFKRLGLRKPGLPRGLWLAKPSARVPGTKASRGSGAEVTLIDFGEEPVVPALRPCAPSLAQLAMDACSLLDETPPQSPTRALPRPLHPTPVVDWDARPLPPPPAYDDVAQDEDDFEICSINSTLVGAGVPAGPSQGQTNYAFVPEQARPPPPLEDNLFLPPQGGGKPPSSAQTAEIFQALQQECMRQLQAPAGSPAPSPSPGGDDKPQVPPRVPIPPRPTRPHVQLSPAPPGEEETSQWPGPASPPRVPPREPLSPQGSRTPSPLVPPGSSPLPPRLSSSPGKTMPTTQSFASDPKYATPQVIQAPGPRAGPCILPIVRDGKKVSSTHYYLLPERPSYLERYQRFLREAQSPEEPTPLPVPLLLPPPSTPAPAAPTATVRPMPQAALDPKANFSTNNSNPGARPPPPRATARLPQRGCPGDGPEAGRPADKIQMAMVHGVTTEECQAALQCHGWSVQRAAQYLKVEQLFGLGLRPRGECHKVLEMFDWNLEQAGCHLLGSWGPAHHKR
Summary of the method: as §1

MAP3K5 = molecular target: T8, MAP3K5 (Homo sapiens, UniProt Q99683); assay: KiNativ kinome profiling in PANC-1 lysate; format: binding; settings: Lys2
T8 construct: endogenous in cells; host or cells: PANC-1 cell lysate
Summary of the method: as §1

YANK3 = molecular target: T9, YANK3 (Homo sapiens, UniProt Q86UX6); assay: KiNativ kinome profiling in PANC-1 lysate; format: binding; settings: Lys2
T9 construct: endogenous in cells; host or cells: PANC-1 cell lysate
T9 sequence (Q86UX6 whole entry): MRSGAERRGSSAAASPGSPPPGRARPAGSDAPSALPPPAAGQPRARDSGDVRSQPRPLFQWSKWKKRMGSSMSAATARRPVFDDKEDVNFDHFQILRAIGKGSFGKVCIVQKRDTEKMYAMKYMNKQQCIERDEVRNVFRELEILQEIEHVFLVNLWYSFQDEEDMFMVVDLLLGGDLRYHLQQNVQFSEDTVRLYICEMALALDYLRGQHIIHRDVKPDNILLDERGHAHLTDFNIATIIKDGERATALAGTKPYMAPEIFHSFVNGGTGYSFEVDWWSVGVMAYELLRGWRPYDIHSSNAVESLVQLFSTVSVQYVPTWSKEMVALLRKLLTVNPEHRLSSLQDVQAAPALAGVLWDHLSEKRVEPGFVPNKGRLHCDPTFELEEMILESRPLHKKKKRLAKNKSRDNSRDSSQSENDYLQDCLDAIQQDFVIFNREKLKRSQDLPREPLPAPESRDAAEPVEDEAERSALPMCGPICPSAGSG
Summary of the method: as §1

TGFbR2 = molecular target: T10, TGFbR2 (Homo sapiens, UniProt P37173); assay: KiNativ kinome profiling in PANC-1 lysate; format: binding; settings: Lys2
T10 construct: endogenous in cells; host or cells: PANC-1 cell lysate
Summary of the method: as §1

KSR1, KSR2 = assay: KiNativ kinome profiling in PANC-1 lysate; format: binding; settings: 5 µM; ATP Loop; SKNVFYDNGK
Summary of the method: as §1

PIK3CD = molecular target: T11, PIK3CD (Homo sapiens, UniProt O00329); assay: KiNativ kinome profiling in PANC-1 lysate; format: binding; settings: ATP
T11 construct: endogenous in cells; host or cells: PANC-1 cell lysate
Summary of the method: as §1

PIP4K2C = molecular target: T12, PIP4K2C (Homo sapiens, UniProt Q8TBX8); assay: KiNativ kinome profiling in PANC-1 lysate; format: binding; settings: ATP
T12 construct: endogenous in cells; host or cells: PANC-1 cell lysate
T12 sequence (Q8TBX8 whole entry): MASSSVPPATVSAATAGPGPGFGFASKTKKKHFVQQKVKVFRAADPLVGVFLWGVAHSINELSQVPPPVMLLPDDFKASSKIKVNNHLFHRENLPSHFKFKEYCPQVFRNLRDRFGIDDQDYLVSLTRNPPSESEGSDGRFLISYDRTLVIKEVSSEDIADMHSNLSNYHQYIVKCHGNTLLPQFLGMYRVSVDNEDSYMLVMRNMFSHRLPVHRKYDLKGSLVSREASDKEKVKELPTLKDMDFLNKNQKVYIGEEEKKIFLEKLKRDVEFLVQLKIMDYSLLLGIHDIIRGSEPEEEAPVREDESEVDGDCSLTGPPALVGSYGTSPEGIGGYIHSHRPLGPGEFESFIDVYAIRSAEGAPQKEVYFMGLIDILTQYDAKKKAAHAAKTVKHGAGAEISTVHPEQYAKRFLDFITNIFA
Summary of the method: as §1

LYN = molecular target: T13, LYN (Homo sapiens, UniProt P07948); assay: KiNativ kinome profiling in PANC-1 lysate; format: binding
T13 construct: endogenous in cells; host or cells: PANC-1 cell lysate
T13 sequence (P07948 whole entry): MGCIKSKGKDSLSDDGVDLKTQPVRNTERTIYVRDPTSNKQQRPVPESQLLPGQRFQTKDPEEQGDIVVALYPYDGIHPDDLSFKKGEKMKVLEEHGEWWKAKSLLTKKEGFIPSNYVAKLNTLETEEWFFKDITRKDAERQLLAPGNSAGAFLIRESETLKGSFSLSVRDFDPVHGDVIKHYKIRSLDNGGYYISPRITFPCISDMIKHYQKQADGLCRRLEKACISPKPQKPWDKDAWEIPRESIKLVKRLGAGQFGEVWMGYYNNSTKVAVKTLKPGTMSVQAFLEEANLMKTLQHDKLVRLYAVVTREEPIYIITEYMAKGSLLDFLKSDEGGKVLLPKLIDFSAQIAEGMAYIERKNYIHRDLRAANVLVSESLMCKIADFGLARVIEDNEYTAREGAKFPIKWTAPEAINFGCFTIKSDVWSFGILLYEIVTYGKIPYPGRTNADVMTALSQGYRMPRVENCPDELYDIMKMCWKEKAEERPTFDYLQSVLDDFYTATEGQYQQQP
Summary of the method: as §1

In the case of `Cn1cc(-c2cnc3ccc(NC(=O)Nc4ccc(F)c(C(F)(F)F)c4)cc3n2)cn1` [51-106, 1-(4-Fluoro-3-(trifluoromethyl)phenyl)-3-(3-(1-methyl-1H-pyrazol-4-yl)quinoxalin-6-yl)urea], the “improvement in t½ in human liver microsomes” value ([1]; 51-106 versus analog 84) is reported as ~ 3.7 fold, the “T1/2 (half-life) in human liver microsomes” value ([1]; Species Human) is reported as ~ 50 h and the “Hepatic Extraction Ratio (E)” value ([1]; Species Human, human liver microsomes) is reported as 0.03. The half-life ([1]; both sexes, human, liver microsomes, Species Human, read-out: T1/2 (half-life) in human liver microsomes (converted)) was 50.2 h, the “% Inhibition” value (CSK; 5 µM, ATP Loop, VSDFGLTKEASSTQDTGKLPVK) was “NB (NB = No Binding (≤ 0))” and the inhibition at 5 µM (CSK; Lys1, VAVKCIK) was ≤ 0%. For the same molecule, the “% Inhibition” value (PKD1, PKD2) was “NB (NB = No Binding (≤ 0))”, the inhibition at 5 µM (MARK3) was ≤ 0% and the “% Inhibition” value (MER, TYRO3) was “NB (NB = No Binding (≤ 0))”. The inhibition at 5 µM (ATM) was 7.4%, the “% Inhibition” value (ROCK1, ROCK2; Lys1, VYAMKLLSK) was 11.9% and the “% Inhibition” value (ROCK1, ROCK2; Lys2, DVKPDNMLLDK) was “NB (NB = No Binding (≤ 0))”. For the same molecule, the inhibition at 5 µM (IRAK1) was ≤ 0%, the inhibition at 5 µM (NDR2; Lys1, DTGHIYAMKILR) was ≤ 0% and the inhibition at 5 µM (NDR2; Lys2, DIKPDNLLLDAK) was 7.6%. For the same molecule, the inhibition at 5 µM (JAK1 domain1) was ≤ 0%, the “% Inhibition” value (ACK; 5 µM, Activation Loop, KVPFAWCAPESLK) was “NB (NB = No Binding (≤ 0))” and the inhibition at 5 µM (ACK; Lys1, […]) was ≤ 0%. The inhibition at 5 µM (MAP3K5) was 11.7%, the inhibition at 5 µM (YANK3) was ≤ 0% and the inhibition at 5 µM (TGFbR2) was 8.9%. For the same molecule, the “% Inhibition” value (KSR1, KSR2) was 8.8%, the inhibition at 5 µM (PIK3CD) was 1.8% and the inhibition at 5 µM (PIP4K2C; TLVIKEVSSEDIADMHSNLSNYHQYIVK) was 21.8%. For the same molecule, the inhibition at 5 µM (PIP4K2C; VKELPTLKDMDFLNK) was ≤ 0%, the inhibition at 5 µM (LYN; ATP Loop, EGAKFPIKWTAPEAINFGCFTIK) was ≤ 0% and the inhibition at 5 µM (LYN; Lys1, VAVKTLKPGTMSVQAFLEEANLMK) was 1.8%.
